This note sets out measurements from patent publication US20240287079A1, “6-AMINOPYRAZOLOPYRIMIDINE COMPOUND AND PHARMACEUTICAL USE THEREOF” (Japan Tobacco Inc., priority 2021, published 2024).

As a reminder, the IC50 is the concentration needed to halve the response being measured.

The experiment has as its target NLRP3 inflammasome (Homo sapiens (Human), UniProt Q96P20). In words: Evaluation of NLRP3 inflammasome inhibitory activity (inhibition of IL-1β production in LPS/Nigericin-stimulated THP1-Null cells). The note with it: IL-1β production in THP1-Null cells, PMA, LPS 1 μg/mL, Nigericin 7.5 μmol/L, AlphaLISA. Type of experiment: cell-based. Put shortly: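 THP1-Null cells primed with 1 μg/mL LPS, then treated with test compound; supernatant IL-1β quantified by AlphaLISA. Inhibition calculated with blank wells as 100% and control wells as 0%.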

Chain of NLRP3 inflammasome (Q96P20 whole entry): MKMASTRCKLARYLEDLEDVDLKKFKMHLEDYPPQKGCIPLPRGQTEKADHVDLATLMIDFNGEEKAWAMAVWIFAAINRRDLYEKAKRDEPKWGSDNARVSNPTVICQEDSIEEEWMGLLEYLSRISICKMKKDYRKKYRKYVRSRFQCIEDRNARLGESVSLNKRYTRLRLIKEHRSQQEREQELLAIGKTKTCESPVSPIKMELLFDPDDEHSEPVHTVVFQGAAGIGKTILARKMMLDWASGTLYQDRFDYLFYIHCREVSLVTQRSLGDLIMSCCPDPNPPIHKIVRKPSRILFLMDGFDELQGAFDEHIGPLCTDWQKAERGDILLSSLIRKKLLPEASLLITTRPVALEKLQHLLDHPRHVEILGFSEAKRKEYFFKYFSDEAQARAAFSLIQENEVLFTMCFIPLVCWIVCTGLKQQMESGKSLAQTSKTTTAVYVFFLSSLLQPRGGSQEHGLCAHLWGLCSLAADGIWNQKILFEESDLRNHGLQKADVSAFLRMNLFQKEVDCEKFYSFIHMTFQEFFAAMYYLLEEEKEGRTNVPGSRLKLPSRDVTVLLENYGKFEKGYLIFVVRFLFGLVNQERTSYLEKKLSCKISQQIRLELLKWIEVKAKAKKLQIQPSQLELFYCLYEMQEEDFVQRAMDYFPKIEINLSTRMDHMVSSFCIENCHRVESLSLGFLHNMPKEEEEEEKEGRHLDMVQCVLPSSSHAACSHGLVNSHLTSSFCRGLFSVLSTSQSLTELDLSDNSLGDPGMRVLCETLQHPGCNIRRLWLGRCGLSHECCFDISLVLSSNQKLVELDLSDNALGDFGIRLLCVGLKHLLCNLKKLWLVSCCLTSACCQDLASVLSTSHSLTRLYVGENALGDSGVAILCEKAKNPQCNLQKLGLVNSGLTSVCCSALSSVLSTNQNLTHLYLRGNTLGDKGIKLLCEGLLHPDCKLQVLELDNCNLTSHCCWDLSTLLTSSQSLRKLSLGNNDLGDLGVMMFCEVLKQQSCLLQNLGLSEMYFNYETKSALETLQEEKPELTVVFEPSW

As for `C=C(C)c1ccc(-n2cc3c(=O)[nH]c(N4CCCC4)nc3n2)c(C)c1` [Example 81], the IC50 came out at 11 nM.

In the case of `Cc1cc(Br)cc(C)c1-n1cc2c(=O)[nH]c(N3CCN(C)CC3)nc2n1` [Example 246], half-maximal inhibition (IC50) was put at 15 nM.

In turn, `O=c1[nH]c(N2CCCC2)nc2nn(-c3ccccc3Cl)cc12` [Example 1] yielded an IC50 of 340 nM.

As for `Cc1cc(C2CC2)cc(F)c1-n1cc2c(=O)[nH]c(N3C[C@@H]4C[C@H]3CO4)nc2n1` [Example 300], inhibition was half-maximal at 15 nM (IC50).

The molecule `Cc1ccccc1-n1cc2c(=O)[nH]c(N3CCCC3)nc2n1` [Example 3, 6-(pyrrolidin-1-yl)-2-(o-tolyl)-2,5-dihydro-4H-pyrazolo[3,4-d]pyrimidin-4-one] registered an IC50 of 530 nM.

In the case of `Cc1ccccc1-n1cc2c(=O)[nH]c(N3CCC3)nc2n1` [Example 16], the IC50 is 1300 nM.

`CC(C)(C)c1ccc(-n2cc3c(=O)[nH]c(N4CCOCC4)nc3n2)c(Br)c1` [Example 306] gave an IC50 of 85 nM.

Molecule `O=c1[nH]c(N2CCCC2)nc2nn(-c3ccc(F)cc3Cl)cc12` [Example 32] gave an IC50 of 240 nM.

Molecule `Cc1cc(Br)cc(C)c1-n1cc2c(=O)[nH]c(N3CCCOCC3)nc2n1` [Example 145] registered an IC50 of 12 nM.

`COC[C@H]1CCCN1c1nc2nn(-c3ccccc3C)cc2c(=O)[nH]1` [Example 41] came in with an IC50 of 4100 nM.

`O=c1[nH]c(N2CCOCC2)nc2nn(-c3c(F)cc(C4CC4)cc3C(F)(F)F)cc12` [Example 273] yielded an IC50 of 13 nM.

`Cc1cc(C)c(-n2cc3c(=O)[nH]c(N4CCNCC4)nc3n2)c(C)c1` [Example 102] registered a 50% inhibitory concentration (IC50) of 130 nM.

Turning to `O=c1[nH]c(N2CCOCC2)nc2nn(-c3ccccc3C(F)(F)F)cc12` [Example 25], half-maximal inhibition (IC50) required 950 nM.

For `CC(=O)N1CCCN(c2nc3nn(-c4ccc(C(F)(F)F)cc4Cl)cc3c(=O)[nH]2)CC1` [Example 134], the IC50 worked out at 91 nM.

`O=c1[nH]c(N2CCCC2)nc2nn(-c3c(Cl)cccc3Cl)cc12` [Example 30, 2-(2,6-dichlorophenyl)-6-(pyrrolidin-1-yl)-2,5-dihydro-4H-pyrazole[3,4-d]pyrimidin-4-one]: the IC50 turned out to be 1100 nM.

As for `Cc1cc(C2(C(F)(F)F)CC2)cc(C)c1-n1cc2c(=O)[nH]c(N3CCOCC3)nc2n1` [Example 276], it took 220 nM to reach half-maximal inhibition (IC50).

`Cc1cc(C)c(-n2cc3c(=O)[nH]c(N4CCC(O)CC4)nc3n2)c(C)c1` [Example 105] yielded an IC50 of 64 nM.

`CNc1nc2nn(-c3ccccc3C)cc2c(=O)[nH]1` [Example 36] yielded an IC50 of 1700 nM.

`O=c1[nH]c(N2CCCC2)nc2nn(-c3ccccc3C(F)(F)F)cc12` [Example 8] returned an IC50 of 590 nM.

For the molecule `O=c1[nH]c(N2CCOCC2)nc2nn(-c3ccc(OC(F)F)cc3C(F)(F)F)cc12` [Example 325], the IC50 turned out to be 31 nM.

As for `Cc1ccccc1-n1cc2c(=O)[nH]c(N3CCC(F)(F)C3)nc2n1` [Example 12], half-maximal inhibition (IC50) was put at 380 nM.

For the molecule `Cc1cc(C2CC2)ccc1-n1cc2c(=O)[nH]c(N3CCCC3)nc2n1` [Example 82], inhibition was half-maximal at 4.1 nM (IC50).

Consider `Cc1cc(Cl)cc(C#N)c1-n1cc2c(=O)[nH]c(N3CCOCC3)nc2n1` [Example 168], for which the IC50 was found to be 60 nM.

For the molecule `Cc1cc(Br)cc(C)c1-n1cc2c(=O)[nH]c(N3CCCCCO3)nc2n1` [Example 338], the 50% inhibitory concentration (IC50) came to 25 nM.

`O=c1[nH]c(N2CCOCC2)nc2nn(-c3ccc(Br)cc3C(F)(F)F)cc12` [Example 241] yielded an IC50 of 11 nM.

`Cc1cc(Br)ccc1-n1cc2c(=O)n(C)c(N3CCN(S(C)(=O)=O)CC3)nc2n1` [Example 138] showed a 50% inhibitory concentration (IC50) of 140 nM.

In turn, `Cc1ccc(-n2cc3c(=O)[nH]c(N4CCN(C)CC4)nc3n2)c(C)c1` [Example 84] yielded an IC50 of 95 nM.

Molecule `Cc1cc(Br)ccc1-n1cc2c(=O)[nH]c(N3Cc4ccccc4C3)nc2n1` [Example 75] displayed an IC50 of 14 nM.

On to `Cc1ccccc1-n1cc2c(=O)[nH]c(N3CCOCC3C)nc2n1` (racemic) [Example 17], for which the half-maximal inhibitory concentration (IC50) stood at 2800 nM.

The molecule `O=c1[nH]c(N2CCOCC2)nc2nn(-c3ccc(C4CC4)cc3C(F)(F)F)cc12` [Example 177] yielded an IC50 of 5.6 nM.

As for `C=C(c1cc(C)c(-n2cc3c(=O)[nH]c(N4CCOCC4)nc3n2)c(C)c1)C(F)(F)F` [Example 293], the IC50 was found to be 290 nM.

As to `O=c1[nH]c(N2C[C@H]3C[C@@H]2CO3)nc2nn(-c3ccc(Br)cc3C(F)(F)F)cc12` [Example 259], it took 23 nM to reach half-maximal inhibition (IC50).

Turning to `CC(=O)N1CCN(c2nc3nn(-c4c(C)cc(C5CC5)cc4C)cc3c(=O)[nH]2)[C@H](C)C1` [Example 290], the IC50 is 10 nM.

In turn, `Cc1cc(C2CC2)cc(C(F)(F)F)c1-n1cc2c(=O)[nH]c(N3CCOCC3)nc2n1` [Example 175] returned an IC50 of 13 nM.

`Cc1cc(Br)ccc1-n1cc2c(=O)[nH]c(N3CCNC(=O)C3)nc2n1` [Example 78] displayed an IC50 of 28 nM.

For `COc1cc(Br)ccc1-n1cc2c(=O)[nH]c(N3CCOCC3)nc2n1` [Example 304], the IC50 was 65 nM.

With `Cc1ccccc1-n1cc2c(=O)[nH]c(N3CCC(C)(O)C3)nc2n1` (racemic) [Example 37], half-maximal inhibition (IC50) was put at 3200 nM.

The molecule `CC(C)(C)OC(=O)N1CCCN(c2nc3nn(-c4ccc(C(F)(F)F)cc4Cl)cc3c(=O)[nH]2)CC1` [Example 132] returned an IC50 of 74 nM.

Take `O=c1[nH]c(N2CCOCC2)nc2nn(-c3c(F)cc(C(F)(F)F)cc3Cl)cc12` [Example 189]: 20 nM corresponded to half-maximal inhibition (IC50).

As to `Cc1cc(C2CC2)cc(F)c1-n1cc2c(=O)[nH]c(N3CCOCC3)nc2n1` [Example 255], the half-maximal inhibitory concentration (IC50) worked out at 6.2 nM.

Turning to `Cc1cc(Br)ccc1-n1cc2c(=O)n(CC#N)c(N3CCN(S(C)(=O)=O)CC3)nc2n1` [Example 173], the half-inhibitory concentration (IC50) came out at 120 nM.

`Cn1c(N2CC3CC(C2)O3)nc2nn(-c3ccc(Br)cc3C(F)(F)F)cc2c1=O` [Example 311] gave an IC50 of 320 nM.

Consider `COCCN(C)c1nc2nn(-c3c(C)cc(Br)cc3C)cc2c(=O)[nH]1` [Example 337], for which the concentration for half-maximal inhibition (IC50) was 47 nM.

On to `Cc1ccccc1-n1cc2c(=O)[nH]c(N3CCC3Cc3ccccc3)nc2n1` (racemic) [Example 38], for which 2500 nM corresponded to half-maximal inhibition (IC50).

In turn, `Cc1cc(C(C)C(F)(F)F)cc(C)c1-n1cc2c(=O)[nH]c(N3CCOCC3)nc2n1` (racemic) [Example 294] had an IC50 of 270 nM.

`Cc1cc(C(F)F)cc(C)c1-n1cc2c(=O)[nH]c(N3CCOCC3)nc2n1` [Example 329] showed an IC50 of 45 nM.

In turn, `O=c1[nH]c(N2CC3CNCC3C2)nc2nn(-c3ccc(C(F)(F)F)cc3Cl)cc12` (stereo not shown) [Example 186] yielded a half-maximal inhibitory concentration (IC50) of 230 nM.

`Cc1cc(Br)ccc1-n1cc2c(=O)[nH]c(NCc3ccccc3)nc2n1` [Example 74] had an IC50 of 25 nM.

Molecule `O=c1[nH]c(N2CCOCCO2)nc2nn(-c3ccc(Br)cc3C(F)(F)F)cc12` [Example 355] returned a half-inhibitory concentration (IC50) of 43 nM.

The molecule `O=c1[nH]c(N2CCOCC2)nc2nn(-c3c(O)cc(C(F)(F)F)cc3Cl)cc12` [Example 257] registered an IC50 of 69 nM.

`O=c1[nH]c(N2CC(CCO)C2)nc2nn(-c3ccc(C(F)(F)F)cc3Cl)cc12` [Example 180]: the concentration for half-maximal inhibition (IC50) amounted to 35 nM.

As for `Cc1cc(Br)cc(C)c1-n1cc2c(=O)[nH]c(N3CCC(C(C)(C)O)C3)nc2n1` (racemic) [Example 194], the IC50 came to 24 nM.
